Values after ≈ are worked out from the molar mass of the structure shown. Where a SMILES comes first, the peptide text is derived from it. [ ]: non-standard residue; d: D form. Orn = NCCC[C@H](N)C(=O)O
Key:
Candida albicans [1] = assay type: cell-based
Procedure: (§1) Antimicrobial activity was determined by macrobroth dilution antimicrobial susceptibility testing. Solutions of the cyclic decapeptides (Loloatin A, B and C) and a control (vancomycin) were prepared in tryptic soy broth. Initially, a 100 μg/ml solution of each compound was tested. When inhibition of target microorganism was detected, serial two-fold dilutions of the compound in broth were tested to determine the minimal inhibitory concentration (MIC) of each compound for each target organisms. Target organisms tested are listed below in Table 3, and included methicillin resistant Staphylococcus aureus, vancomycin resistant Enterococcus sp. Escherichia coli, multiply drug resistant Pseudomonas aeruginosa; Stenofrophomonas maltophilia and Candida albicans. Turbidity standardized suspensions of each organism were prepared according to accepted protocols using a 0.5 McFarland turbidity standard, and these standardized suspensions were used to inoculate the tubes containing the compounds. Activity of a compound was indicated by lack of growth (turbidity) of one or more of the target organisms. See Woods, G. L. and Washington, J. A., “Antibacterial susceptibility tests: dilution and disk diffusion methods, Manual of Clinical Microbiology (6th Ed.), Murray, Baron, Pfaller, Tenover and Yolken Eds.), ASM Press, Washington D.C., 1995, pp. 1327-1341. Other compounds of the invention may be screened and evaluated for antibiotic activity in the same manner.

Escherichia coli [2] = assay type: cell-based
Procedure: as §1

[3] = tested on: Stenotrophomonas maltophilia; assay type: cell-based
Procedure: as §1

Pseudomonas aeruginosa [4] = assay type: cell-based
Procedure: as §1

Enterobacter cloacae [5] = assay type: cell-based
Procedure: as §1

[6] = tested on: Group A Streptococcus (19615); assay type: cell-based
Procedure: as §1

[7] = tested on: Group B Streptococcus (12401); assay type: cell-based
Procedure: as §1

S. aureus (MRSA) = assay type: cell-based, Staphylococcus aureus
Procedure: as §1

Enterococcus gallinarum = assay: microbe, parasite or virus in culture; assay type: cell-based
Procedure: as §1

[8] = tested on: Enterococcus faecium (19007); assay: microbe, parasite or virus in culture; assay type: cell-based; settings: for BROTH DILUTION MIC: 19007
Procedure: as §1

[9] = tested on: Enterococcus faecalis (ATCC51299); assay: microbe, parasite or virus in culture; assay type: cell-based; settings: for BROTH DILUTION MIC: ATCC51299
Procedure: as §1

[10] = tested on: Enterococcus faecalis (13242); assay: microbe, parasite or virus in culture; assay type: cell-based; settings: for BROTH DILUTION MIC: 13242
Procedure: as §1

[11] = tested on: Enterococcus faecium (F4641); assay: microbe, parasite or virus in culture; assay type: cell-based; settings: for BROTH DILUTION MIC: F4641
Procedure: as §1

[12] = Microtiter plate assay of HPLC fractions to identify active materials; assay type: cell-based; settings: reverse phase HPLC fractions of Method C cyclization mixture
Description: (§2) The complex reaction mixture from Method C was chromatographed on reverse phase HPLC, and a microtiter plate assay was run throughout the entire chromatogram to identify active materials.

P.a. 028 = assay: In-vitro Microbiology of Fraction 73 (MIC/MBZ); assay type: cell-based, Pseudomonas aeruginosa
Description: as §2

Candida albicans [13] = assay type: cell-based; remark: listed apart in the source
Procedure: (§3) Antimicrobial activity was determined by macrobroth dilution antimicrobial susceptibility testing. A solution of Loloatin B was prepared in tryptic soy broth. Initially, a […] solution of the peptide was tested. If inhibition of a target microorganism was detected, serial two-fold dilutions (in broth) of the Loloatin B solutions were tested to determine the minimal inhibitory concentration (MIC) of Loloatin B for each target organism Target organisms tested are identified in Table 2. Turbidity standardized suspensions of each organism were prepared according to accepted protocols using a 0.5 McFarland turbidity standard, and these standardized suspensions were used to inoculate a tube containing Loloatin B. Activity of Loloatin B was indicated by lack of growth (turbidity) of one or more of the target organisms.
(§4) See Woods, G. L. et al., “Antibacterial susceptibility tests: dilution and disk diffusion methods, Manual of Clinical Microbiology (6^thEd.), Murray, Baron, Pfaller, Tenover and Yolken (Eds.), ASM Press, Washington D.C., 1995, pp. 1327-1341.

Xanthomonas maltophilia = assay type: cell-based
Procedure: as §3, §4

[14] = tested on: Methicillin resistant Staphylococcus aureus; assay type: cell-based
Procedure: as §3, §4

[15] = tested on: Penicillin resistant Streptococcus pneumoniae; assay type: cell-based
Procedure: as §3, §4

Escherichia coli [16] = assay type: cell-based; remark: listed apart in the source
Procedure: as §3, §4

Pseudomonas aeruginosa [17] = assay type: cell-based; remark: listed apart in the source
Procedure: as §3, §4

[18] = tested on: Vancomycin resistant Enterococcus faecalis; assay type: cell-based
Procedure: as §3, §4

Enterobacter cloacae [19] = assay type: cell-based; remark: listed apart in the source
Procedure: as §3, §4

MRSA 034 = assay: In-vitro Microbiology of Fraction 73 (MIC/MBZ); assay type: cell-based, Staphylococcus aureus
Description: as §2

[20] = Enterococcus faecium, read-out: BROTH DILUTION MIC

| BROTH DILUTION MIC (Candida albicans [1]) [µg/mL] | BROTH DILUTION MIC (Escherichia coli [2]) [µg/mL] | BROTH DILUTION MIC [3] [µg/mL] | BROTH DILUTION MIC (Pseudomonas aeruginosa [4]) [µg/mL] | BROTH DILUTION MIC (Enterobacter cloacae [5]) [µg/mL] | BROTH DILUTION MIC [6] [µg/mL] | BROTH DILUTION MIC [7] [µg/mL] | BROTH DILUTION MIC (S. aureus (MRSA)) [µg/mL] | BROTH DILUTION MIC (Enterococcus gallinarum) [µg/mL] | BROTH DILUTION MIC [8] [µg/mL] | BROTH DILUTION MIC [9] [µg/mL] | BROTH DILUTION MIC [10] [µg/mL] | BROTH DILUTION MIC [11] [µg/mL] | Compound | further results |
| --- | --- | --- | --- | --- | --- | --- | --- | --- | --- | --- | --- | --- | --- | --- |
| 16 | >100 | >100 | >100 | >100 | <0.25 | <1 | 2 to 4 | 2 to 4 | 2 to 4 | 2 to 4 | 2 to 4 | 2 to 4 | CC(C)C[C@@H]1NC(=O)[C@H](CCCN)NC(=O)[C@H](C(C)C)NC(=O)[C@H](Cc2ccc(O)cc2)NC(=O)[C@H](CC(=O)O)NC(=O)[C@H](CC(N)=O)NC(=O)[C@@H](Cc2ccccc2)NC(=O)[C@H](Cc2ccccc2)NC(=O)[C@@H]2CCCN2C(=O)[C@@H](Cc2ccc(O)cc2)NC1=O [Loloatin A, cyclo[L-Val-L-Orn-L-Leu-D-Tyr-L-Pro-L-Phe-D-Phe-L-Asn-L-Asp-L-Tyr]] (cyclo(DYV[Orn]L[dY]PF[dF]N)) |  |
| 16 | 1 to 2 | >100 | >100 | >100 | <0.25 | <0.25 | 0.5 to 1 | 1 to 2 | 2 | 2 to 4 | 1 to 2 | 2 | CC(C)C[C@@H]1NC(=O)[C@H](CCCN)NC(=O)[C@H](C(C)C)NC(=O)[C@H](Cc2c[nH]c3ccccc23)NC(=O)[C@H](CC(=O)O)NC(=O)[C@H](CC(N)=O)NC(=O)[C@@H](Cc2ccccc2)NC(=O)[C@H](Cc2c[nH]c3ccccc23)NC(=O)[C@@H]2CCCN2C(=O)[C@@H](Cc2ccc(O)cc2)NC1=O [Loloatin C, cyclo [L-Val-L-Orn-L-Leu-D-Tyr-L-Pro-L-Trp-D-Phe-L-Asn-L-Asp-L-Trp]] (cyclo(DWV[Orn]L[dY]PW[dF]N)) | activity against Escherichia coli (in words) (Escherichia coli [2]; Escherichia coli, a gram negative rod bacteria, comment on Table 3): excellent activity |
|  |  |  |  |  |  |  |  |  |  |  |  |  | CN[C@H](CC(C)C)C(=O)N[C@H]1C(=O)N[C@@H](CC(N)=O)C(=O)N[C@H]2C(=O)N[C@H]3C(=O)N[C@H](C(=O)N[C@H](C(=O)O)c4cc(O)cc(O)c4-c4cc3ccc4O)[C@H](O)c3ccc(c(Cl)c3)Oc3cc2cc(c3O[C@@H]2O[C@H](CO)[C@@H](O)[C@H](O)[C@H]2O[C@H]2C[C@](C)(N)[C@H](O)[C@H](C)O2)Oc2ccc(cc2Cl)[C@H]1O [Vancomycin, vancomycin, reference compound] | MIC (Enterococcus gallinarum; Enterococcus gallinarum, GALLINARUM, read-out: BROTH DILUTION MIC): 6 µg/mL (≈ 4.14 µM); MIC [8, 20]: > 100 µg/mL; MIC ([9]; Enterococcus faecalis, ATCC51299, read-out: BROTH DILUTION MIC): 20 µg/mL (≈ 13.8 µM); MIC ([10]; Enterococcus faecalis, read-out: BROTH DILUTION MIC): > 100 µg/mL; MIC [11, 20]: 6 µg/mL (≈ 4.14 µM) |

| Compound | BROTH DILUTION MIC (Candida albicans [1]) [µg/mL] | BROTH DILUTION MIC (Escherichia coli [2]) [µg/mL] | BROTH DILUTION MIC [3] [µg/mL] | BROTH DILUTION MIC (Pseudomonas aeruginosa [4]) [µg/mL] | BROTH DILUTION MIC (Enterobacter cloacae [5]) [µg/mL] | BROTH DILUTION MIC [6] [µg/mL] | BROTH DILUTION MIC [7] [µg/mL] | BROTH DILUTION MIC (S. aureus (MRSA)) [µg/mL] | BROTH DILUTION MIC (Enterococcus gallinarum) [µg/mL] | BROTH DILUTION MIC [8] [µg/mL] | BROTH DILUTION MIC [9] [µg/mL] | BROTH DILUTION MIC [10] [µg/mL] | BROTH DILUTION MIC [11] [µg/mL] | further results |
| --- | --- | --- | --- | --- | --- | --- | --- | --- | --- | --- | --- | --- | --- | --- |
| CC(C)C[C@@H]1NC(=O)[C@H](CCCN)NC(=O)[C@H](C(C)C)NC(=O)[C@H](Cc2c[nH]c3ccccc23)NC(=O)[C@H](CC(=O)O)NC(=O)[C@H](CC(N)=O)NC(=O)[C@@H](Cc2ccccc2)NC(=O)[C@H](Cc2ccccc2)NC(=O)[C@@H]2CCCN2C(=O)[C@@H](Cc2ccc(O)cc2)NC1=O [Loloatin B, cyclo [L-Val-L-Orn-L-Leu-D-Tyr-L-Pro-L-Phe-D-Phe-L-Asn-L-Asp-L-Trp]] (cyclo(V[Orn]L[dY]PF[dF]NDW)) | 16 | >100 | >100 |  | >100 | <0.25 | <1 | 2 to 4 | 2 to 4 | 2 to 4 | 2 to 4 | 2 to 4 | 2 to 4 | biological activity of HPLC fraction (in words) [12]: exhibited the desired biological activity; MBZ (P.a. 028): >128; MIC (P.a. 028): >128; Minimum Inhibitory Concentration (Candida albicans [13]): >100 µg/mL; Minimum Inhibitory Concentration (Xanthomonas maltophilia): >100 µg/mL; Minimum Inhibitory Concentration [14]: <2 µg/mL; Minimum Inhibitory Concentration [15]: <2 µg/mL; Minimum Inhibitory Concentration (Escherichia coli [16]): >100 µg/mL; Minimum Inhibitory Concentration (Pseudomonas aeruginosa [17]): >100 µg/mL; Minimum Inhibitory Concentration [18]: <2 µg/mL; Minimum Inhibitory Concentration (Enterobacter cloacae [19]): >100 µg/mL; MBZ (MRSA 034): 8.0; MIC (MRSA 034): 8.0 |

From patent publication US6790829B1, “Cyclic decapeptide antibiotics” (priority 1998, dated 2004)
